Patent US4568490A, “Aminopropylaminobleomycin derivatives and process for preparation thereof” (Zaidan Hojin Biseibutsu Kagaku Kenkyu Kai, priority 1981, dated 1986)

Experiments:
ICR strain mice = test: Pulmonary toxicity (pulmonary fibrosis) in mice, intraperitoneal injection; type: in vivo; conditions: 5 mg/kg i.p. once a day for 10 days; for Grade of pulmonary fibrosis, % / Incidence of pulmonary fibrosis, % / Incidence: number of mice suffering from pulmonary fibrosis / Grade: total score of pulmonary fibrosis/total number of test animal: autopsy after 5 weeks; for Incidence: number of mice suffering from pulmonary fibrosis: affected/total mice; for Grade: total score of pulmonary fibrosis/total number of test animal: score 0-6 points; for Grade of pulmonary fibrosis, Ratio / Incidence of pulmonary fibrosis, Ratio: reference of the ratio not stated
Method in brief: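 Male ICR mice, 15 weeks old, 9 per group, received 5 mg/kg intraperitoneally once daily for 10 days. They were autopsied after 5 weeks' observation for pulmonary fibrosis incidence and grade: 1, alveolar exudate/septal fibrosis-like change; 2, fibrosis in several areas; 4, scattered fibrosis; 6, fibrosis over >2/3 of area.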

[1] = tested on: Mycobacterium smegmatis ATCC 607; test: Antimicrobial activity, agar plate-cylinder method; type: cell-based; conditions: Cu-free form; bleomycin A2 (Cu-free form) standard assumed 1,000 mcg/mg
Experimental: (§1) The activity was assayed against the above test microorganisms by the method of agar plate-cylinder, assuming the potency of bleomycin A2 (Cu-free form), used as standard, to be 1,000 mcg/mg.

Hela S3 cells = test: Growth inhibitory activity against Hela S3 cells; type: cell-based; conditions: Cu-free form; Hela S3, 3 days incubation with compound
Experimental: The percentage growth inhibition was calculated using the equation: […] wherein A is the ultimate number of cells on the third day from the addition of a test sample, B is the ultimate number of cells in the control (without the addition of test sample), and C is the number of cells on the day of addition of the test sample.

[2] = tested on: Lymphocytic leukemia P-388; test: In vivo antitumor activity, murine lymphocytic leukemia P-388; conditions: BDF1-SLC mice, i.p. transplant, once daily for 9 days, 30 days observation; T/C more than 130 effective
Experimental: The following data with respect to the testing of a group of the presently claimed substances in vivo according to a standard test method involving murine lymphocytic leukemia P-388 is presented to lend further assurance as to the utility of the compounds as inhibitors of mammalian tumors.
Lymphocytic leukemia P-388 cells (1×10^5 /0.2 ml) were transplanted intraperitoneally into male BDF1 -SLC mice (5 mice/group). Each of the compounds of this invention was diluted with physiological saline to various concentrations. Each dilution was administered at a dose of 0.1 ml/10 g of body weight once daily for 9 days, starting on the day after the day of the transplantation. The mice of the control group were administered physiological saline.
The average number of days that the group receiving the compound of this invention survived was calculated. The figure obtained was divided by the average number of survival days for the control group, and was multiplied by 100 (T/C (%)).
T/C value more than 130 was considered to be effective.

Bacillus subtilis = test: Antimicrobial activity, agar plate-cylinder method; type: cell-based; conditions: Cu-free form; bleomycin A2 (Cu-free form) standard assumed 1,000 mcg/mg
Experimental: (1) Antimicrobial activity against Mycobacterium smegmatis ATCC 697 and Bacillus subtilis.
as §1

ICR mice = test: Pulmonary toxicity (pulmonary fibrosis) in mice, intratracheal instillation; type: in vivo; conditions: 16 μg/50 μl/mouse intratracheally, sacrificed 4 weeks after instillation; for Grade: total score of pulmonary fibrosis/total number of samples: score 0-6 points

## Cc1c(N)nc(C(CC(N)=O)NCC(N)C(N)=O)nc1C(=O)NC(C(=O)NC(C)C(O)C(C)C(=O)NC(C(=O)NCCc1nc(-c2nc(C(=O)NCCC[N+](C)(C)CCC[N+](C)(C)CCCNCC3CCCCCCC3)cs2)cs1)C(C)O)C(OC1OC(CO)C(O)C(O)C1OC1OC(CO)C(O)C(OC(N)=O)C1O)c1cnc[nH]1 (stereo not shown) [Compound No. 42, 3-{N,N--Dimethyl-N--[3'-(N,N--dimethyl-N--(3"-cyclooctylmethylaminopropyl)amino)propyl]amino}propylaminoBLM]
ICR strain mice
  Grade of pulmonary fibrosis, %: 0%
  Incidence of pulmonary fibrosis, %: 0%
  Incidence: number of mice suffering from pulmonary fibrosis: 0/9
  Grade: total score of pulmonary fibrosis/total number of test animal: 0/27
  Grade of pulmonary fibrosis, Ratio: 0.00
  Incidence of pulmonary fibrosis, Ratio: 0.00
[1]
  Antimicrobial potency of Cu--free compound, against Mycobacterium smegmatis ATCC 607: 26000 mcg potency per mg
Hela S3 cells
  50% growth inhibition concentration (ID50) of Cu--free compound against cultured Hela cell: 0.51 µg/mL
[2]
  Max. T/C on Mouse Lymphocytic Leukemia P 388: 177%
Bacillus subtilis
  Antimicrobial potency of Cu--free compound, against Bacillus subtilis: 14600 mcg potency per mg

## Cc1c(N)nc(C(CC(N)=O)NCC(N)C(N)=O)nc1C(=O)NC(C(=O)NC(C)C(O)C(C)C(=O)NC(C(=O)NCCc1nc(-c2nc(C(=O)NCCCN(C)CCCNCc3ccc(OCc4ccccc4)c(OCc4ccccc4)c3)cs2)cs1)C(C)O)C(OC1OC(CO)C(O)C(O)C1OC1OC(CO)C(O)C(OC(N)=O)C1O)c1cnc[nH]1 (stereo not shown) [compound 15]
ICR strain mice
  Grade of pulmonary fibrosis, %: 4%
  Incidence of pulmonary fibrosis, %: 11%
  Incidence: number of mice suffering from pulmonary fibrosis: 1/9
  Grade: total score of pulmonary fibrosis/total number of test animal: 1/27
  Grade of pulmonary fibrosis, Ratio: 0.05
  Incidence of pulmonary fibrosis, Ratio: 0.18
[1]
  Antimicrobial potency of Cu--free compound, against Mycobacterium smegmatis ATCC 607: 4516 mcg potency per mg
Hela S3 cells
  50% growth inhibition concentration (ID50) of Cu--free compound against cultured Hela cell: 0.36 µg/mL
[2]
  Max. T/C on Mouse Lymphocytic Leukemia P 388: 165%
ICR mice
  Grade of pulmonary fibrosis, %: 4%
  Incidence of pulmonary fibrosis, %: 13%
  Incidence: number of mice with pulmonary fibrosis/number of mice: 1/8
  Grade: total score of pulmonary fibrosis/total number of samples: 1/24
Bacillus subtilis
  Antimicrobial potency of Cu--free compound, against Bacillus subtilis: 1772 mcg potency per mg

## Cc1c(N)nc(C(CC(N)=O)NCC(N)C(N)=O)nc1C(=O)NC(C(=O)NC(C)C(O)C(C)C(=O)NC(C(=O)NCCc1nc(-c2nc(C(=O)NCCCN(C)CCCN(Cc3ccccc3)Cc3ccccc3)cs2)cs1)C(C)O)C(OC1OC(CO)C(O)C(O)C1OC1OC(CO)C(O)C(OC(N)=O)C1O)c1cnc[nH]1 (stereo not shown) [compound 27, 3-{N--Methyl-N--[3'-(dibenzylamino)propyl]amino}propylaminoBLM]
ICR strain mice
  Grade of pulmonary fibrosis, %: 7%
  Incidence of pulmonary fibrosis, %: 20%
  Incidence: number of mice suffering from pulmonary fibrosis: 1/5
  Grade: total score of pulmonary fibrosis/total number of test animal: 1/15
  Grade of pulmonary fibrosis, Ratio: 0.08
  Incidence of pulmonary fibrosis, Ratio: 0.32
[1]
  Antimicrobial potency of Cu--free compound, against Mycobacterium smegmatis ATCC 607: 14194 mcg potency per mg
Hela S3 cells
  50% growth inhibition concentration (ID50) of Cu--free compound against cultured Hela cell: 0.89 µg/mL
[2]
  Max. T/C on Mouse Lymphocytic Leukemia P 388: 149%
ICR mice
  Grade of pulmonary fibrosis, %: 7%
  Incidence of pulmonary fibrosis, %: 22%
  Incidence: number of mice with pulmonary fibrosis/number of mice: 2/9
  Grade: total score of pulmonary fibrosis/total number of samples: 2/27
Bacillus subtilis
  Antimicrobial potency of Cu--free compound, against Bacillus subtilis: 1138 mcg potency per mg

## Cc1c(N)nc(C(CC(N)=O)NCC(N)C(N)=O)nc1C(=O)NC(C(=O)NC(C)C(O)C(C)C(=O)NC(C(=O)NCCc1nc(-c2nc(C(=O)NCCC[N+](C)(C)CCCN(Cc3ccccc3)Cc3ccccc3)cs2)cs1)C(C)O)C(OC1OC(CO)C(O)C(O)C1OC1OC(CO)C(O)C(OC(N)=O)C1O)c1cnc[nH]1 (stereo not shown) [compound 35, 3-{N,N--Dimethyl-N--[3'-(dibenzylamino)propyl]amino}propylaminoBLM]
ICR strain mice
  Grade of pulmonary fibrosis, %: 0%
  Incidence of pulmonary fibrosis, %: 0%
  Incidence: number of mice suffering from pulmonary fibrosis: 0/9
  Grade: total score of pulmonary fibrosis/total number of test animal: 0/27
  Grade of pulmonary fibrosis, Ratio: 0.00
  Incidence of pulmonary fibrosis, Ratio: 0.00
[1]
  Antimicrobial potency of Cu--free compound, against Mycobacterium smegmatis ATCC 607: 13784 mcg potency per mg
Hela S3 cells
  50% growth inhibition concentration (ID50) of Cu--free compound against cultured Hela cell: 0.87 µg/mL
[2]
  Max. T/C on Mouse Lymphocytic Leukemia P 388: 153%
ICR mice
  Grade of pulmonary fibrosis, %: 8%
  Incidence of pulmonary fibrosis, %: 25%
  Incidence: number of mice with pulmonary fibrosis/number of mice: 2/8
  Grade: total score of pulmonary fibrosis/total number of samples: 2/24
Bacillus subtilis
  Antimicrobial potency of Cu--free compound, against Bacillus subtilis: 1742 mcg potency per mg

## CCCC[N+](CCCC)(CCCNC(=O)c1csc(-c2csc(CCNC(=O)C(NC(=O)C(C)C(O)C(C)NC(=O)C(NC(=O)c3nc(C(CC(N)=O)NCC(N)C(N)=O)nc(N)c3C)C(OC3OC(CO)C(O)C(O)C3OC3OC(CO)C(O)C(OC(N)=O)C3O)c3cnc[nH]3)C(C)O)n2)n1)CCCN(Cc1ccccc1)Cc1ccccc1 (stereo not shown) [compound 38, 3-{N,N--Dibutyl-N--[3'-(dibenzylamino)propyl]amino}propylaminoBLM]
ICR strain mice
  Grade of pulmonary fibrosis, %: 0%
  Incidence of pulmonary fibrosis, %: 0%
  Incidence: number of mice suffering from pulmonary fibrosis: 0/9
  Grade: total score of pulmonary fibrosis/total number of test animal: 0/27
  Grade of pulmonary fibrosis, Ratio: 0.00
  Incidence of pulmonary fibrosis, Ratio: 0.00
[1]
  Antimicrobial potency of Cu--free compound, against Mycobacterium smegmatis ATCC 607: 17910 mcg potency per mg
Hela S3 cells
  50% growth inhibition concentration (ID50) of Cu--free compound against cultured Hela cell: 2.00 µg/mL
[2]
  Max. T/C on Mouse Lymphocytic Leukemia P 388: 156%
Bacillus subtilis
  Antimicrobial potency of Cu--free compound, against Bacillus subtilis: 530 mcg potency per mg

## Cc1c(N)nc(C(CC(N)=O)NCC(N)C(N)=O)nc1C(=O)NC(C(=O)NC(C)C(O)C(C)C(=O)NC(C(=O)NCCc1nc(-c2nc(C(=O)NCCCN3CCN(CCCNCC4CCCCCCC4)CC3)cs2)cs1)C(C)O)C(OC1OC(CO)C(O)C(O)C1OC1OC(CO)C(O)C(OC(N)=O)C1O)c1cnc[nH]1 (stereo not drawn) [compound 45, 3-[4-(3-Cyclooctylmethylaminopropyl)piperazin-l-yl]propylaminoBLM]
ICR strain mice
  Grade of pulmonary fibrosis, %: 0%
  Incidence of pulmonary fibrosis, %: 0%
  Incidence: number of mice suffering from pulmonary fibrosis: 0/9
  Grade: total score of pulmonary fibrosis/total number of test animal: 0/27
  Grade of pulmonary fibrosis, Ratio: 0.00
  Incidence of pulmonary fibrosis, Ratio: 0.00
[1]
  Antimicrobial potency of Cu--free compound, against Mycobacterium smegmatis ATCC 607: 43000 mcg potency per mg
Hela S3 cells
  50% growth inhibition concentration (ID50) of Cu--free compound against cultured Hela cell: 0.81 µg/mL
[2]
  Max. T/C on Mouse Lymphocytic Leukemia P 388: 163%
Bacillus subtilis
  Antimicrobial potency of Cu--free compound, against Bacillus subtilis: 15100 mcg potency per mg

## CC[N+](CC)(CCCNCCc1ccc(Cl)cc1)CCCNC(=O)c1csc(-c2csc(CCNC(=O)C(NC(=O)C(C)C(O)C(C)NC(=O)C(NC(=O)c3nc(C(CC(N)=O)NCC(N)C(N)=O)nc(N)c3C)C(OC3OC(CO)C(O)C(O)C3OC3OC(CO)C(O)C(OC(N)=O)C3O)c3cnc[nH]3)C(C)O)n2)n1 (stereo not shown) [compound 46, 3-{N,N--Diethyl-N--[3'-(2"-p-chlorophenylethylamino)propyl]amino}propylaminoBLM]
ICR strain mice
  Grade of pulmonary fibrosis, %: 0%
  Incidence of pulmonary fibrosis, %: 0%
  Incidence: number of mice suffering from pulmonary fibrosis: 0/9
  Grade: total score of pulmonary fibrosis/total number of test animal: 0/27
  Grade of pulmonary fibrosis, Ratio: 0.00
  Incidence of pulmonary fibrosis, Ratio: 0.00
[1]
  Antimicrobial potency of Cu--free compound, against Mycobacterium smegmatis ATCC 607: 17480 mcg potency per mg
Hela S3 cells
  50% growth inhibition concentration (ID50) of Cu--free compound against cultured Hela cell: 0.52 µg/mL
[2]
  Max. T/C on Mouse Lymphocytic Leukemia P 388: 150%
Bacillus subtilis
  Antimicrobial potency of Cu--free compound, against Bacillus subtilis: 13310 mcg potency per mg
